Laboratory results: the supplement of paper PMC11208160

Test: recombinant UMI read abundance after kanamycin selection (control-corrected) (log10(CPM+1)); higher = more efficient recombination; extreme values may be limits of the assay; sequences stand for … in AGTGCAGAGAAAATCGGCCAGTTTTCTCTGCCTGCAGTCCGCATGCCGTGGGACCCCTTGGGTTCTAACCTGTTGCCTAGATTTATGCAGCGGACTGCCTTTCTCCCAAAGTGATAAACCGG…AGGTTGGTTTCACT; site = the 11-nt donor
Summary of the method: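 Sequenced counts of recombinant UMIs were turned into CPM, averaged across replicates and scaled with control-derived factors. The reported figure is log10(CPM+1). Those UMIs, each 12 nt long, tagged donor and donor-binding-loop pairs on a plasmid with a promoterless kanamycin gene, screened as a pool in Escherichia coli with IPTG (0.07 mM) plus kanamycin or without selection.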
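Further: IS621 bridge recombinase in Escherichia coli cells against a fixed T5 target plasmid.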

Sequence | recombinant UMI read abundance (log10)
GTTGGCCCATGGACCGGTTTTCCCGGTAATCCGTATTTGAG (site GTTGGCCCTCT) | 0.0112
GTTGGGACATGGACCGGTTTTCCCGGTAATCCGTATTTGGC (site GTTGGGACTGC) | 1.53
GTTGGGGCATGGACCGGTTTTCCCGGTAATCCGTATTTGCG (site GTTGGGGCTCG) | 2.05
GTTGTACCATGGACCGGTTTTCCCGGTAATCCGTATTTGGT (site GTTGTACCTAC) | 0
GTTGTACCATGGACCGGTTTTCCCGGTAATCCGTATTTGGT (site GTTGTCCCTAC) | 0.0245
GTTGTACCATGGACCGGTTTTCCCGGTAATCCGTATTTGGT (site GTTGTGCCTAC) | 0.0127
GTTGTACCATGGACCGGTTTTCCCGGTAATCCGTATTTGGT (site GTTGTTCCTAC) | 0
GTTGTGCCATGGACCGGTTTTCCCGGTAATCCGTATTTGGT (site GTTGTACCTAC) | 0.00401
GTTGTGCCATGGACCGGTTTTCCCGGTAATCCGTATTTGGT (site GTTGTCCCTAC) | 0.0044
GTTGTGCCATGGACCGGTTTTCCCGGTAATCCGTATTTGGT (site GTTGTGCCTAC) | 0.0934
GTTGTGCCATGGACCGGTTTTCCCGGTAATCCGTATTTGGT (site GTTGTTCCTAC) | 0.0079
GTTGTGGCATGGACCGGTTTTCCCGGTAATCCGTATTTGAG (site GTTGTGGCTCT) | 1.71
GTTGTTTCATGGACCGGTTTTCCCGGTAATCCGTATTTGGT (site GTTGTTACTAC) | 0.00963
GTTGTTTCATGGACCGGTTTTCCCGGTAATCCGTATTTGGT (site GTTGTTCCTAC) | 0.00733
GTTGTTTCATGGACCGGTTTTCCCGGTAATCCGTATTTGGT (site GTTGTTGCTAC) | 0.0146
GTTGTTTCATGGACCGGTTTTCCCGGTAATCCGTATTTGGT (site GTTGTTTCTAC) | 0.83
GTTTAAACATGGACCGGTTTTCCCGGTAATCCGTATTTGGA (site GTTTAAACTTC) | 0.655
GTTTAGGCATGGACCGGTTTTCCCGGTAATCCGTATTTGGC (site GTTTAGGCTGC) | 2.08
GTTTGCGCATGGACCGGTTTTCCCGGTAATCCGTATTTGGC (site GTTTGCGCTGC) | 2.03

Sequence | recombinant UMI read abundance (log10)
GTTTGTTCATGGACCGGTTTTCCCGGTAATCCGTATTTGAT (site GTTTGTTCTAT) | 0.167
GTTTTTCCATGGACCGGTTTTCCCGGTAATCCGTATTTGGT (site GTTATTCCTAC) | 0.0038
GTTTTTCCATGGACCGGTTTTCCCGGTAATCCGTATTTGGT (site GTTCTTCCTAC) | 0.00946
GTTTTTCCATGGACCGGTTTTCCCGGTAATCCGTATTTGGT (site GTTGTTCCTAC) | 0.0239
GTTTTTCCATGGACCGGTTTTCCCGGTAATCCGTATTTGGT (site GTTTTTCCTAC) | 0
TAAAAGCCATGGACCGGTTTTCCCGGTAATCCGTATTTGAG (site TAAAAGCCTCT) | 0.525
TAAAATCCATGGACCGGTTTTCCCGGTAATCCGTATTTGTA (site TAAAATCCTTA) | 0
TAAAATCCATGGACCGGTTTTCCCGGTAATCCGTATTTGTA (site TAAACTCCTTA) | 1.43
TAAAATCCATGGACCGGTTTTCCCGGTAATCCGTATTTGTA (site TAAAGTCCTTA) | 0.431
TAAAATCCATGGACCGGTTTTCCCGGTAATCCGTATTTGTA (site TAAATTCCTTA) | 0
TAAACCCCATGGACCGGTTTTCCCGGTAATCCGTATTTGTA (site TAAACCCCTTA) | 1.33
TAAACTCCATGGACCGGTTTTCCCGGTAATCCGTATTTGTA (site TAAAATCCTTA) | 0.534
TAAACTCCATGGACCGGTTTTCCCGGTAATCCGTATTTGTA (site TAAACTCCTTA) | 1.32
TAAACTCCATGGACCGGTTTTCCCGGTAATCCGTATTTGTA (site TAAAGTCCTTA) | 0.221
TAAACTCCATGGACCGGTTTTCCCGGTAATCCGTATTTGTA (site TAAATTCCTTA) | 0
TAAAGTCCATGGACCGGTTTTCCCGGTAATCCGTATTTGTA (site AAAAGTCCTTA) | 2.17
TAAAGTCCATGGACCGGTTTTCCCGGTAATCCGTATTTGTA (site CAAAGTCCTTA) | 0.47
TAAAGTCCATGGACCGGTTTTCCCGGTAATCCGTATTTGTA (site GAAAGTCCTTA) | 0.00467
TAAAGTCCATGGACCGGTTTTCCCGGTAATCCGTATTTGTA (site TAAAATCCTTA) | 0

Sequence | recombinant UMI read abundance (log10)
TAAAGTCCATGGACCGGTTTTCCCGGTAATCCGTATTTGTA (site TAAACTCCTTA) | 0.531
TAAAGTCCATGGACCGGTTTTCCCGGTAATCCGTATTTGTA (site TAAAGACCTTA) | 0.00959
TAAAGTCCATGGACCGGTTTTCCCGGTAATCCGTATTTGTA (site TAAAGCCCTTA) | 0.452
TAAAGTCCATGGACCGGTTTTCCCGGTAATCCGTATTTGTA (site TAAAGGCCTTA) | 0.00572
TAAAGTCCATGGACCGGTTTTCCCGGTAATCCGTATTTGTA (site TAAAGTACTTA) | 0.459
TAAAGTCCATGGACCGGTTTTCCCGGTAATCCGTATTTGTA (site TAAAGTCCTAA) | 0.0143
TAAAGTCCATGGACCGGTTTTCCCGGTAATCCGTATTTGTA (site TAAAGTCCTCA) | 0.00255
TAAAGTCCATGGACCGGTTTTCCCGGTAATCCGTATTTGTA (site TAAAGTCCTGA) | 0
TAAAGTCCATGGACCGGTTTTCCCGGTAATCCGTATTTGTA (site TAAAGTCCTTA) | 0.722
TAAAGTCCATGGACCGGTTTTCCCGGTAATCCGTATTTGTA (site TAAAGTCCTTC) | 0.00609
TAAAGTCCATGGACCGGTTTTCCCGGTAATCCGTATTTGTA (site TAAAGTCCTTG) | 0.00546
TAAAGTCCATGGACCGGTTTTCCCGGTAATCCGTATTTGTA (site TAAAGTCCTTT) | 0.0573
TAAAGTCCATGGACCGGTTTTCCCGGTAATCCGTATTTGTA (site TAAAGTGCTTA) | 0.00484
TAAAGTCCATGGACCGGTTTTCCCGGTAATCCGTATTTGTA (site TAAAGTTCTTA) | 0.0051
TAAAGTCCATGGACCGGTTTTCCCGGTAATCCGTATTTGTA (site TAAATTCCTTA) | 0.812
TAAAGTCCATGGACCGGTTTTCCCGGTAATCCGTATTTGTA (site TAACGTCCTTA) | 0.243
TAAAGTCCATGGACCGGTTTTCCCGGTAATCCGTATTTGTA (site TAAGGTCCTTA) | 0.198
TAAAGTCCATGGACCGGTTTTCCCGGTAATCCGTATTTGTA (site TAATGTCCTTA) | 0.0108
TAAAGTCCATGGACCGGTTTTCCCGGTAATCCGTATTTGTA (site TACAGTCCTTA) | 0
